Assay results published in patent US20260207640A1, “Polyphenolic Boronates and Use Thereof” (The Medical College of Wisconsin, Inc., priority 2022, published 2026).
Entries after “also recorded” stand apart in the source; their conditions may differ.

Experiments:
[1] = system: arginase-1 and NOS-2 (or iNOS); conditions: cited from earlier work
[2] = system: glioblastoma (U87MG) cells; experiment: IncuCyte cell proliferation, glioblastoma cells; type: cell-based, human; conditions: for antiproliferative effect, boronate versus non-boronated analog: comparison within pair (HNK/HNK-B, Mito-HNK/Mito-HNK-B, MGN/MGN-B, Mito-MGN/Mito-MGN-B)
Method: (§1) FIGS. 2A-2C show effects of HNK and HNK-B on the proliferation of glioblastoma (U87MG), pancreatic cancer (MiaPaCa-2) cells, and lung cancer (A549) cells. The effects of HNK and HNK-B on the proliferation of U87MG (FIG. 2A), MiaPaCa-2 (FIG. 2B), or A549 (FIG. 2C) cells were monitored in the IncuCyte Live-Cell Analysis system. The IncuCyte analyzer provides real-time updates on cell confluence based on segmentation of high definition-phase contrast images. Representative cell images are shown as segmentation masks, illustrated when control cells reached 90% confluence (vertical solid line). The half maximal inhibitory concentration (IC50) values for U87MG (FIG. 2A), MiaPaCa-2 (FIG. 2B), or A549 (FIG. 2C) cells were determined at the point at which control cells reached ~90% confluence (vertical solid line). Relative cell confluence (control is taken as 100%) is plotted against concentration. Dashed lines represent the fitting curves used to determine the IC50 values as indicated. Data shown are the mean±standard deviation (SD).
(§2) The effects of Mito-HNK and Mito-HNK-B on the proliferation of U87MG (FIG. 3A), MiaPaCa-2 (FIG. 3B), or A549 (FIG. 3C) cells were monitored in the IncuCyte Live-Cell Analysis system. The IncuCyte analyzer provides real-time updates on cell confluence based on segmentation of high definition-phase contrast images. Representative cell images are shown as segmentation masks, illustrated when control cells reached 90% confluence (vertical solid line). The IC50 values for U87MG (FIG. 3A), MiaPaCa-2 (FIG. 3B), or A549 (FIG. 3C) cells were determined at the point at which control cells reached ~90% confluence (vertical solid line). Relative cell confluence (control is taken as 100%) is plotted against concentration. Dashed lines represent the fitting curves used to determine the IC50 values as indicated. Data shown are the mean±SD.
FIGS. 4A-4B show effects of Mito-MGN, Mito-MGN-B, MGN, and MGN-B on the proliferation of glioblastoma cancer (U87MG) cells. The effects of Mito-MGN, Mito-MGN-B, MGN, and MGN-B on the proliferation of U87MG cells were monitored in the IncuCyte Live-Cell Analysis system. The IncuCyte analyzer provides real-time updates on cell confluence based on segmentation of high definition-phase contrast images. Representative cell images are shown as segmentation masks, illustrated in black when control cells reached 90% confluence. Full growth curves of Mito-MGN and Mito-MGN-B are shown in panel (FIG. 4A). The IC50 values were determined at the point at which control cells reached ~90% confluence. Relative cell confluence (control is taken as 100%) is plotted against concentration. Dashed lines in FIG. 4B represent the fitting curves used to determine the IC50 values as indicated for Mito-MGN and Mito-MGN-B (left panel) and for MGN and MGN-B (right panel). Data shown are the mean±SD.
(§3) The U87MG (ATCC Cat #HTB-14, human glioblastoma cancer cells), A549 (ATCC Cat #CCL-185, human lung cancer cells), and MiaPaCa-2 (ATCC Cat #CRL-1420, human pancreatic cancer cells) cell lines were purchased from the American Tissue Culture Collection (Manassas, VA, USA). The UACC-62 melanoma cell line was purchased from AddexBio (San Diego, CA; Cat #C0020003). All cell lines were regularly authenticated. All cell lines were grown at 37° C. in 5% carbon dioxide. The U87MG, A549, and UACC-62 cells were maintained in Roswell Park Memorial Institute Medium 1640 medium (Thermo Fisher Scientific, Waltham, MA, USA; Cat #11875) supplemented with 10% fetal bovine serum. MiaPaCa-2 cells were maintained in Dulbecco's Modified Eagle Medium (Thermo Fisher Scientific, Waltham, MA, USA; Cat #11965) and supplemented with 10% fetal bovine serum. All cells were stored in liquid nitrogen and used within 20 passages after thawing.
The IncuCyte Live-Cell Analysis System was used to continuously monitor cell proliferation, as described in earlier publications.

[3] = system: pancreatic cancer (MiaPaCa-2) cells; experiment: IncuCyte cell proliferation, pancreatic cancer cells; type: cell-based, human; conditions: comparison within pair
Method: as §1
as §2, with “mean±SD. […]” for “mean±SD.”

lung cancer (A549) cells = experiment: IncuCyte cell proliferation, lung cancer cells; type: cell-based, human; conditions: comparison within pair
Method: as §1
as §2, with “mean±SD. […]” for “mean±SD.”

melanoma (UACC-62) cells = experiment: IncuCyte cell proliferation, melanoma cells; type: cell-based; conditions: dose-dependent
Method: FIGS. 5A-5B show effects of MGN and MGN-B on the proliferation of melanoma cancer (UACC-62) cells. The effects of MGN and MGN-B on the proliferation of UACC-62 cells were monitored in the IncuCyte Live-Cell Analysis system. The IncuCyte analyzer provides real-time updates on cell confluence based on segmentation of high definition-phase contrast images. The IC50 values were determined at the point at which control cells reached ~90% confluence. Relative cell confluence (control is taken as 100%) is plotted against concentration. Dashed lines in FIG. 5B represent the fitting curves used to determine the IC50 values as indicated for MGN and MGN-B. Data shown are the mean±SD.
as §3, with “MiaPaCa-2 cells were maintained in Dulbecco's Modified Eagle Medium (Thermo Fisher Scientific, Waltham, MA, USA; Cat #11965) and supplemented with 10% fetal bovine serum. All cells were stored in liquid nitrogen and used within 20 passages after thawing.” left out

[4] = system: granulocytic-myeloid-derived suppressor cells (G-MDSCs) and regulatory T cells (Tregs); conditions: cited from earlier work
[5] = Oxidation of boronates by H2O2, HPLC; type: physicochemical
Method: (§4) All samples were incubated at room temperature in aqueous solution containing phosphate buffer (0.1 M, pH 7.4) and DTPA (10 μM). Absorption traces recorded using UV absorption detection at 260 nm.
(§5) High-performance liquid chromatography (HPLC) analysis was performed using an Agilent 1200 apparatus equipped with ultraviolet-visible spectroscopy absorption and a mass spectrometry detector (single quadrupole).
(§6) In the studies on the reaction profile of ONOO oxidation of Mito-HNK-B and derivatives, 2 μL of sample was injected into the HPLC system equipped with a C18 column (Phenomenex, Kinetex Evo, 100×2.1 mm, 1.7 μm) equilibrated with 5% MeCN containing 0.1% (v/v) formic acid. The compounds were separated by a linear increase in MeCN phase concentration from 5% to 100% over 8 min and until 15 min at 100% MeCN using a flow rate of 0.21 mL/min. The peak areas detected by monitoring the absorption at 260 nm were used for the quantitation.
(§7) The stock solutions of oxidants (HOCl and H2O2) were prepared freshly before each experiment; their concentrations were determined by spectrophotometry by reacting nitrite with H2O2, using the procedure described previously. […] Immediately prior to each experiment, the concentration of ONOO was determined spectrally at 302 nm (ε=1.7× 103 M^−1 cm^−1) after dilution in 0.1 M sodium hydroxide to ~10 mM concentration. […]

[6] = Oxidation of boronates by ONOO−, HPLC; type: physicochemical; conditions: in the presence of ONOO−
Method: as §4, §5, §6, §7

[7] = Hydrolysis of pinacolate ester in aqueous phosphate buffer, HPLC; type: physicochemical; conditions: upon dilution in aqueous phosphate buffer
Method: Stock solutions of HNK-B, HNK-B^2, and Mito-HNK-B were prepared in dimethyl sulfoxide at a 10 mM concentration and this solution was added directly to the buffer to obtain the desired concentration. […] Thus, the boronic acid species were tested with the oxidants. When studying HNK-B and Mito-HNK-B oxidations by HOCl, stock solutions (10 mM) in MeCN were added to the phosphate buffer (100 mM, pH 7.4) to obtain a final concentration of the probe of 500 μM. Dimethyl sulfoxide solvent was avoided due to known rapid quenching of HOCl by dimethyl sulfoxide.

kidney = conditions: in vivo; cited from earlier work
NOX2 = target: T1, NOX2 (Homo sapiens, UniProt P04839); experiment: Oxidant formation from NOX2; conditions: preliminary results
T1 sequence (P04839 2-570 limits assumed): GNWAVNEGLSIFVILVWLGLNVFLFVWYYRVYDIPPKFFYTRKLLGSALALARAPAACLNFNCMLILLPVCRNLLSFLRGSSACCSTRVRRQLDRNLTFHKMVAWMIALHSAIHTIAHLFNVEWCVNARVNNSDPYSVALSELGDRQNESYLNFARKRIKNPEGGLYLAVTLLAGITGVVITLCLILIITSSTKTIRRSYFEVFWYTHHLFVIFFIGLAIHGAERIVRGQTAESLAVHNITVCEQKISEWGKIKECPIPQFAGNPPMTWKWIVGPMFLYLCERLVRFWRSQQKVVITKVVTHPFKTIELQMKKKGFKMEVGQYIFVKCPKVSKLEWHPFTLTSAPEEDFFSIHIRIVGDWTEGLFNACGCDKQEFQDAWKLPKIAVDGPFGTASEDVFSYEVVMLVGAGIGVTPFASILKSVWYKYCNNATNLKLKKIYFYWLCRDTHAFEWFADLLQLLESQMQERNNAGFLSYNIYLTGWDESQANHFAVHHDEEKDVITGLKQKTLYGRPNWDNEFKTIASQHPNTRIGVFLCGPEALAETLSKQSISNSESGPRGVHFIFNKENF

lung tumors = conditions: mice xenografts; cited from earlier work
[8] = not told; cited from earlier work

## NC(=O)c1c(COC(=O)c2ccccc2O)no[n+]1[O-] [AT38, 3-(aminocarbonyl) furoxan-4-yl) methyl salicylate]
[1]
  chemokine nitration: mitigated chemokine nitration
  expression of arginase-1 and NOS-2 (or iNOS) in myeloid cells in the TME: inhibited the expression

## C=CCc1ccc(O)c(-c2ccc(O)c(CC=C)c2)c1 [HNK, honokiol]
[2]
  antiproliferative effect, boronate versus non-boronated analog: nearly the same
[3]
  antiproliferative effect, boronate versus non-boronated analog: nearly the same
Lung cancer (A549) cells
  antiproliferative effect, boronate versus non-boronated analog: nearly the same

## C=CCc1ccc(O)c(-c2cc(CC=C)ccc2O)c1 [MGN, magnolol]
Melanoma (UACC-62) cells
  effect on proliferation: decreasing the proliferation

## C=CCc1ccc(O)c(-c2cc(CC=C)ccc2OCc2ccc(B3OC(C)(C)C(C)(C)O3)cc2)c1 [MGN-B, Magnolol boronate]
[2]
  antiproliferative effect, boronate versus non-boronated analog: increased the potency
Melanoma (UACC-62) cells
  effect on proliferation: decreasing the proliferation

## O=C1C(OCCCCCCCCCC[P+](c2ccccc2)(c2ccccc2)c2ccccc2)=C(C2CCC(c3ccc(Cl)cc3)CC2)C(=O)c2ccccc21 (stereo not drawn) [Mito-ATO, Mitochondria-targeted atovaquone]
[4]; flow cytometry analysis
  G-MDSCs and Tregs in the TME: significant decreases
[4]; intratumoral injection into primary tumors, spontaneous tumor model
  T cell immune responses locally and in distant tumor sites: triggered potent T cell immune responses

## Mitochondria-targeted honokiol boronate [Mito-HNK-B]
[2]
  antiproliferative effect, boronate versus non-boronated analog: slightly more potent; also recorded: nearly the same
[3]
  antiproliferative effect, boronate versus non-boronated analog: nearly the same
Lung cancer (A549) cells
  antiproliferative effect, boronate versus non-boronated analog: nearly the same
[5]; at higher concentrations of H2O2
  conversion of boronate to parent polyphenol: increased
[5]; in the presence of H2O2 (500 μM), boronate 500 μM, phosphate buffer 0.1 M pH 7.4, room temperature
  conversion of boronate to parent polyphenol (HNK or Mito-HNK): 37%
[6]
  oxidation to HNK / Mito-HNK: rapidly oxidized
[7]
  hydrolysis of pinacolate ester to the corresponding boronic acid: fast hydrolysis

## Mitochondria-targeted magnolol boronate [Mito-MGN-B]
[2]
  antiproliferative potency of TPP+ conjugate compared with parent compounds MGN/MGN-B: increased their antiproliferative potencies
  antiproliferative effect, boronate versus non-boronated analog: slightly more potent

## mitochondria-targeted carboxy-proxyl [Mito-CP]
kidney
  cisplatin-induced renal toxicity: inhibited cisplatin-induced renal toxicity

## mitochondria-targeted honokiol [Mito-HNK]
[2]
  antiproliferative effect, boronate versus non-boronated analog: nearly the same
[3]
  antiproliferative effect, boronate versus non-boronated analog: nearly the same
Lung cancer (A549) cells
  antiproliferative effect, boronate versus non-boronated analog: nearly the same
NOX2
  oxidant formation from NOX2: inhibits oxidant formation
Lung tumors
  metastasis of lung tumors to the brain: inhibited metastasis
[8]
  blood-brain-barrier permeability: showed blood-brain-barrier permeability

## mitochondria-targeted magnolol [Mito-MGN]
[2]
  antiproliferative potency of TPP+ conjugate compared with parent compounds MGN/MGN-B: increased their antiproliferative potencies
